Experimental data taken from patent US8735151B2, “Spontaneously contracting fish cell aggregates, use thereof and method for the production thereof” (Fraunhofer-Gesellschaft zur Foerderung der Angewandten …, priority 2009, dated 2014).

How the values were obtained:
[1] = tested on: spontaneously contracting cell aggregates (certain channels in the heart: potassium and calcium channels); experiment: Drug tests on the cell aggregates (electrophysiology, intracellular derivation with a sharp electrode); format: cell-based, Rainbow trouts (Oncorhynchus mykiss, Walbaum); conditions: for reaction of the aggregates on drugs which influence certain channels in the heart: FIG. 10; for recovery of the aggregates after the drug testing: medium change
Procedure: FIG. 10 Effect of cardiac drugs on the cell aggregates; A: isoproterenol (calcium channel agonist); B: rilmakalim ([…])
The electrophysiology is important for the use of the cell aggregates as a test system in pharmacology. Measurement of the electric activity was performed by means of extracellular measurement via MEA (multi-electrode array) and intracellular measurement via a sharp electrode.
The properties of action potentials and the examination on certain channels (potassium and calcium channels) were carried out with a sharp electrode.
The reaction of the aggregates on drugs which influence certain channels in the heart is of importance for the functionality as a test model. […] Examinations were carried out with isoproterenol (calcium channel agonist) (FIG. 10A) and rilmakalim ([…]).

[2] = tested on: spontaneously contracting cell aggregate; experiment: Reaction of cell aggregates on the addition of potassium (light microscope, video recordings); format: cell-based, Rainbow trouts (Oncorhynchus mykiss, Walbaum)
Procedure: The reaction of a cell aggregate which had already contracted for 16 days in culture on potassium could be tested in another experiment. It was shown under a light microscope (Axiovert 40C; Zeiss, Germany) with video recordings that the beating frequency of this aggregate increased from 66 beats per minute to 72 beats per minute over a period of 10 minutes. After these 10 minutes, a 1.75 mM potassium chloride solution was added. […] After removing the medium containing the 1.75 mM KCl solution and replacing it with fresh DMEM/20% FBS, the cell aggregate began to beat again after 2 minutes. However, the beating frequency was at first only 16 beats per minute which recovered to the original frequency within the next three days.

Compound	reaction of the aggregates on drugs which influence certain channels in the heart [1]	recovery of the aggregates after the drug testing [1]	contraction speed of the aggregate after adding the KCl solution ([2]; 1.75 mM potassium chloride solution, aggregate 16 days contracting in culture, for 6 seconds after addition, baseline 66-72 beats per minute)	time after addition until contraction stopped ([2]; 1.75 mM potassium chloride solution, no more contractions observed) [s]	beating frequency at first after medium replacement ([2]; after removal of 1.75 mM KCl, recovered to the original frequency within the next three days) [beats per minute]	time until the cell aggregate began to beat again after replacing medium ([2]; after removing medium containing 1.75 mM KCl and replacing with fresh DMEM/20% FBS) [min]
CC1(C)Oc2ccc(S(=O)(=O)c3ccccc3)cc2[C@@H](N2CCCC2=O)[C@@H]1O [rilmakalim]	in the same manner as the human heart	recover after the drug testing by means of a medium change				
CC(C)NCC(O)c1ccc(O)c(O)c1 (centres unmarked) [isoproterenol]	in the same manner as the human heart	recover after the drug testing by means of a medium change				
[Cl-].[K+] [potassium chloride]			triple the speed as before	10	16	2
